Laboratory results reported in the supplement of paper PMC11451515.

Columns and labels:
Settings in all cases: 48 h
NOMO1 [1] = assay: AUC of viability dose-response curve (% viability x log10 dose units); higher = less sensitive
In short: (§1)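 Area under the curve was integrated by trapezoidal rule from a log-logistic fit of normalised viability, with curves exceeding full viability scaled and quality-control failures removed. The fit had four parameters over log10 doses. Viability came from CellTiter-Glo One luminescence, normalised per plate to DMSO and cell-free wells, after leukemia cells adapted to each medium (500 or 1000 cells/well, 1536-well plates) were exposed to library compounds in DMSO for 48 h at 37°C. The 11 threefold doses ran from 47 μM to 0.79 nM.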

SEM cells [2] = assay: as above
In short: as §1

P12-Ichikawa [3] = assay: as above
In short: as §1

NOMO1 [4] = assay: cell viability relative to DMSO control; higher = less cytotoxic
In short: (§2)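 Leukemia cells (NOMO1 or SEM, 500 cells/well; P12-Ichikawa, 1000 cells/well) were seeded in 5 μl in 1536-well plates after at least four passages of adaptation to each medium. They received library compounds in DMSO by pin dosing, 11 threefold points from 47 μM to 0.79 nM. Luminescence with CellTiter-Glo One was read after 48 h at 37°C. Viability is stated per plate relative to DMSO wells, with cell-free wells as background.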

SEM cells [5] = assay: as above
In short: as §2

P12-Ichikawa [6] = assay: as above
In short: as §2

CN1CCCN(CC1)C2=CC=C3C(=O)\C(=C/4SC5=C(C=CC=C5)N4C3=N2)C(=O)NCC6=CN=C(C)C=N6
AUC of viability dose-response curve
Settings	NOMO1 [1]	P12-Ichikawa [3]	SEM cells [2]
HPLM + 10% dialyzed FBS	442	447	417
RPMI 5 mM glucose + 10% FBS	468	410	335
RPMI 5 mM glucose + 10% dialyzed FBS	450	420	374

cell viability [%]
Settings	NOMO1 [4]	P12-Ichikawa [6]	SEM cells [5]
HPLM + 10% dialyzed FBS, 0.000781 µM	127	114	110
HPLM + 10% dialyzed FBS, 0.00234 µM	122	108	102
HPLM + 10% dialyzed FBS, 0.00702 µM	108	119	114
HPLM + 10% dialyzed FBS, 0.0211 µM	130	108	91.7
HPLM + 10% dialyzed FBS, 0.0632 µM	110	110	97.9
HPLM + 10% dialyzed FBS, 0.19 µM	96.6	113	103
HPLM + 10% dialyzed FBS, 0.569 µM	125	108	82.2
HPLM + 10% dialyzed FBS, 1.71 µM	105	103	88.1
HPLM + 10% dialyzed FBS, 5.12 µM	116	92.3	81.2
HPLM + 10% dialyzed FBS, 15.4 µM	115	92.4	73.6
HPLM + 10% dialyzed FBS, 46.1 µM	94.2	84.6	41.6
RPMI 5 mM glucose + 10% FBS, 0.000781 µM	106	113	–
RPMI 5 mM glucose + 10% FBS, 0.00234 µM	103	124	–
RPMI 5 mM glucose + 10% FBS, 0.00702 µM	99.8	122	–
RPMI 5 mM glucose + 10% FBS, 0.0211 µM	94.1	109	–
RPMI 5 mM glucose + 10% FBS, 0.0632 µM	94.4	117	–
RPMI 5 mM glucose + 10% FBS, 0.19 µM	107	108	–
RPMI 5 mM glucose + 10% FBS, 0.569 µM	101	95.9	–
RPMI 5 mM glucose + 10% FBS, 1.71 µM	105	101	–
RPMI 5 mM glucose + 10% FBS, 5.12 µM	97.3	83.3	–
RPMI 5 mM glucose + 10% FBS, 15.4 µM	92.4	81.8	–
RPMI 5 mM glucose + 10% FBS, 46.1 µM	86.7	54.1	–
RPMI 5 mM glucose + 10% dialyzed FBS, 0.000781 µM	103	103	89.6
RPMI 5 mM glucose + 10% dialyzed FBS, 0.00234 µM	105	114	93.9
RPMI 5 mM glucose + 10% dialyzed FBS, 0.00702 µM	111	117	97.5
RPMI 5 mM glucose + 10% dialyzed FBS, 0.0211 µM	91.2	108	92.7
RPMI 5 mM glucose + 10% dialyzed FBS, 0.0632 µM	119	107	98.1
RPMI 5 mM glucose + 10% dialyzed FBS, 0.19 µM	115	104	79.5
RPMI 5 mM glucose + 10% dialyzed FBS, 0.569 µM	102	94.5	68.2
RPMI 5 mM glucose + 10% dialyzed FBS, 1.71 µM	98.7	92.1	71.3
RPMI 5 mM glucose + 10% dialyzed FBS, 5.12 µM	82.9	85.8	70.5
RPMI 5 mM glucose + 10% dialyzed FBS, 15.4 µM	89	82.2	56.3
RPMI 5 mM glucose + 10% dialyzed FBS, 46.1 µM	84.8	59.6	33.1

C/C=C/C(=O)N(CC)c1ccccc1C
AUC of viability dose-response curve
Settings	NOMO1 [1]	P12-Ichikawa [3]	SEM cells [2]
HPLM + 10% dialyzed FBS	393	458	434
RPMI 5 mM glucose + 10% FBS	431	470	465
RPMI 5 mM glucose + 10% dialyzed FBS	399	432	428

Nc1ncnc2c1c(-c1cccc(OCc3ccccc3)c1)cn2[C@H]1C[C@@H](CN2CCC2)C1
AUC of viability dose-response curve
Settings	NOMO1 [1]	P12-Ichikawa [3]	SEM cells [2]
HPLM + 10% dialyzed FBS	433	458	437
RPMI 5 mM glucose + 10% FBS	459	465	456
RPMI 5 mM glucose + 10% dialyzed FBS	450	467	436

cell viability [%], SEM cells [5]
Settings	HPLM + 10% dialyzed FBS	RPMI 5 mM glucose + 10% FBS
0.000781 µM	103	110
0.00234 µM	125	115
0.00702 µM	119	121
0.0211 µM	123	107
0.0632 µM	117	112
0.19 µM	126	107
0.569 µM	109	123
1.71 µM	114	117
5.12 µM	96.4	111
15.4 µM	75.3	91.3
46.1 µM	62.9	64.4

O=C(Nc1cc(C(F)(F)F)cc(C(F)(F)F)c1)c1cc(Cl)ccc1O
AUC of viability dose-response curve
Settings	NOMO1 [1]	P12-Ichikawa [3]	SEM cells [2]
HPLM + 10% dialyzed FBS	361	368	373
RPMI 5 mM glucose + 10% FBS	368	361	357
RPMI 5 mM glucose + 10% dialyzed FBS	363	361	370

COC1=CC=C(C(=C1)OC(C)C)C/2=N/[C@@H]([C@@H](N2C(=O)N3CCNC(=O)C3)C4=CC=C(Cl)C=C4)C5=CC=C(Cl)C=C5
AUC of viability dose-response curve
Settings	NOMO1 [1]	P12-Ichikawa [3]	SEM cells [2]
HPLM + 10% dialyzed FBS	409	404	279
RPMI 5 mM glucose + 10% FBS	439	427	250
RPMI 5 mM glucose + 10% dialyzed FBS	434	413	253

cell viability [%]
Settings	NOMO1 [4]	P12-Ichikawa [6]	SEM cells [5]
HPLM + 10% dialyzed FBS, 0.000781 µM	119	108	92.4
HPLM + 10% dialyzed FBS, 0.00234 µM	115	113	110
HPLM + 10% dialyzed FBS, 0.00702 µM	114	115	112
HPLM + 10% dialyzed FBS, 0.0211 µM	120	108	106
HPLM + 10% dialyzed FBS, 0.0632 µM	119	109	87.1
HPLM + 10% dialyzed FBS, 0.19 µM	112	111	56.5
HPLM + 10% dialyzed FBS, 0.569 µM	124	108	42.5
HPLM + 10% dialyzed FBS, 1.71 µM	105	102	33.1
HPLM + 10% dialyzed FBS, 5.12 µM	96.1	76	29.2
HPLM + 10% dialyzed FBS, 15.4 µM	29.3	37.1	16.1
HPLM + 10% dialyzed FBS, 46.1 µM	5.33	12.1	5.42
RPMI 5 mM glucose + 10% FBS, 0.000781 µM	105	122	100
RPMI 5 mM glucose + 10% FBS, 0.00234 µM	118	125	125
RPMI 5 mM glucose + 10% FBS, 0.00702 µM	106	127	99.9
RPMI 5 mM glucose + 10% FBS, 0.0211 µM	100	119	105
RPMI 5 mM glucose + 10% FBS, 0.0632 µM	103	116	60.6
RPMI 5 mM glucose + 10% FBS, 0.19 µM	103	118	55.6
RPMI 5 mM glucose + 10% FBS, 0.569 µM	104	106	46.5
RPMI 5 mM glucose + 10% FBS, 1.71 µM	103	111	34.5
RPMI 5 mM glucose + 10% FBS, 5.12 µM	95.9	97.2	23.6
RPMI 5 mM glucose + 10% FBS, 15.4 µM	78.1	52	6.03
RPMI 5 mM glucose + 10% FBS, 46.1 µM	7.76	49.6	1.48
RPMI 5 mM glucose + 10% dialyzed FBS, 0.000781 µM	100	122	101
RPMI 5 mM glucose + 10% dialyzed FBS, 0.00234 µM	102	119	106
RPMI 5 mM glucose + 10% dialyzed FBS, 0.00702 µM	104	116	101
RPMI 5 mM glucose + 10% dialyzed FBS, 0.0211 µM	105	117	83.5
RPMI 5 mM glucose + 10% dialyzed FBS, 0.0632 µM	102	125	79.8
RPMI 5 mM glucose + 10% dialyzed FBS, 0.19 µM	114	113	45.1
RPMI 5 mM glucose + 10% dialyzed FBS, 0.569 µM	106	112	41.1
RPMI 5 mM glucose + 10% dialyzed FBS, 1.71 µM	103	110	27.8
RPMI 5 mM glucose + 10% dialyzed FBS, 5.12 µM	90.8	88.3	20.5
RPMI 5 mM glucose + 10% dialyzed FBS, 15.4 µM	70.3	41.5	12.3
RPMI 5 mM glucose + 10% dialyzed FBS, 46.1 µM	17.7	27.8	3.12
